Values quoted from earlier work, collected in article PMC10410440, “Preclinical PK investigation of a novel IDO1/TDO dual inhibitor—SHR9146 in mouse plasma and tissues by LC-MS/MS” (Frontiers in Oncology, 2023).

How the values were obtained:
[1] = system: colon cancer (MC38) cells; set-up: method as in earlier work; settings: SHR9146 combined with the PD-1 antibody vs single PD-1 antibody or SHR9146, and vs PD-1 antibody combined with INCB024360 or NLG0919100; cited from earlier work
advanced solid tumors = system: advanced solid tumors; set-up: method as in doi:10.1200/JCO.2021.39.15_suppl.3101; settings: SHR9146 plus camrelizumab in combination with/without apatinib; cited from earlier work

Compound: OCCn1cc(-c2ccc(N3CCC([C@H]4c5c(F)cccc5-c5cncn54)CC3)cc2)cn1 [SHR9146]
- inhibitory effect on colon cancer (MC38) cells [1]: significantly better inhibitory effect
- antitumor activity and safety in patients (advanced solid tumors): promising antitumor activity with acceptable safety
